Converted amounts (≈) assume the structure as drawn. Blank lines part the entries; values can stand above or below the molecule they belong to.
Assays:
[1] = tested on: Candida parapsilosis; assay: Antifungal activity against Candida parapsilosis ATCC 22019 (Y-12969) assessed as reduction in fungal growth incubated for 48 hrs by microplate reader analysis; format: functional; details: Lodderomyces parapsilosis
[2] = tested on: Candida albicans; assay: Antifungal activity against Candida albicans ATCC 10231 assessed as reduction in fungal growth incubated for 48 hrs by microplate reader analysis; format: functional
[3] = tested on: Candida albicans; assay: Antifungal activity against Candida albicans SC5314 assessed as reduction in fungal growth incubated for 48 hrs by microplate reader analysis; format: functional
[4] = tested on: Pichia kudriavzevii; assay: Antifungal activity against Candida krusei ATCC 6258 (Y-7179) assessed as reduction in fungal growth incubated for 48 hrs by microplate reader analysis; format: functional
[5] = tested on: Candida tropicalis; assay: Antifungal activity against Candida tropicalis ATCC750 (Y-12699) assessed as reduction in fungal growth incubated for 48 hrs by microplate reader analysis; format: functional
[6] = tested on: Cryptococcus neoformans; assay: Antifungal activity against Cryptococcus neoformans H99 assessed as reduction in fungal growth incubated for 48 hrs by microplate reader analysis; format: functional
[7] = tested on: Aspergillus fumigatus; assay: Antifungal activity against Aspergillus fumigatus MYA 3627 assessed as reduction in fungal growth incubated for 48 hrs by microplate reader analysis; format: functional
[8] = tested on: Aspergillus fumigatus; assay: Antifungal activity against Aspergillus fumigatus NRRL6113 assessed as reduction in fungal growth incubated for 48 hrs by microplate reader analysis; format: functional
[9] = tested on: Aspergillus fumigatus; assay: Antifungal activity against Aspergillus fumigatus NRRL5109 assessed as reduction in fungal growth incubated for 48 hrs by microplate reader analysis; format: functional
[10] = tested on: Aspergillus flavus; assay: Antifungal activity against Aspergillus flavus NRRL485 assessed as reduction in fungal growth incubated for 48 hrs by microplate reader analysis; format: functional
[11] = tested on: Aspergillus niger; assay: Antifungal activity against Aspergillus niger FGSC A732 assessed as reduction in fungal growth incubated for 48 hrs by microplate reader analysis; format: functional
[12] = tested on: Aspergillus terreus; assay: Antifungal activity against Aspergillus terreus 191A6 assessed as reduction in fungal growth incubated for 48 hrs by microplate reader analysis; format: functional
[13] = tested on: Curvularia lunata; assay: Antifungal activity against Curvularia lunata NRRL6409 assessed as reduction in fungal growth incubated for 48 hrs by microplate reader analysis; format: functional
[14] = tested on: Rhizopus arrhizus; assay: Antifungal activity against Rhizopus oryzae FGSC 9543 assessed as reduction in fungal growth incubated for 48 hrs by microplate reader analysis; format: functional
[15] = tested on: Mucor circinelloides; assay: Antifungal activity against Mucor circinelloides 235C7 assessed as reduction in fungal growth incubated for 48 hrs by microplate reader analysis; format: functional
[16] = tested on: Fusarium solani; assay: Antifungal activity against Fusarium solani 243G2 assessed as reduction in fungal growth incubated for 48 hrs by microplate reader analysis; format: functional
[17] = tested on: Paecilomyces lilacinus; assay: Antifungal activity against Paecilomyces lilacinus 165E10 assessed as reduction in fungal growth incubated for 48 hrs by microplate reader analysis; format: functional; details: Purpureocillium lilacinum
[18] = tested on: Hamigera insecticola; assay: Antifungal activity against Hamigera insecticola NRRL35442 assessed as reduction in fungal growth incubated for 48 hrs by microplate reader analysis; format: functional
[19] = tested on: Candida albicans; assay: Antifungal activity against Candida albicans SC5314 assessed as reduction in fungal viability incubated for 48 hrs by microplate reader analysis; format: functional
[20] = tested on: Candida albicans; assay: Antifungal activity against Candida albicans ATCC 10231 assessed as reduction in fungal viability incubated for 48 hrs by microplate reader analysis; format: functional
[21] = tested on: Candida parapsilosis; assay: Antifungal activity against Candida parapsilosis ATCC 22019 (Y-12969) assessed as reduction in fungal viability incubated for 48 hrs by microplate reader analysis; format: functional
[22] = tested on: Candida tropicalis; assay: Antifungal activity against Candida tropicalis ATCC750 (Y-12699) assessed as reduction in fungal viability incubated for 48 hrs by microplate reader analysis; format: functional
[23] = tested on: Pichia kudriavzevii; assay: Antifungal activity against Candida krusei ATCC 6258 (Y-7179) assessed as reduction in fungal viability incubated for 48 hrs by microplate reader analysis; format: functional
[24] = tested on: Cryptococcus neoformans; assay: Antifungal activity against Cryptococcus neoformans H99 assessed as reduction in fungal viability incubated for 48 hrs by microplate reader analysis; format: functional
[25] = tested on: Aspergillus fumigatus; assay: Antifungal activity against Aspergillus fumigatus MYA 3627 assessed as reduction in fungal viability incubated for 48 hrs by microplate reader analysis; format: functional
[26] = tested on: Aspergillus fumigatus; assay: Antifungal activity against Aspergillus fumigatus NRRL6113 assessed as reduction in fungal viability incubated for 48 hrs by microplate reader analysis; format: functional
[27] = tested on: Aspergillus fumigatus; assay: Antifungal activity against Aspergillus fumigatus NRRL5109 assessed as reduction in fungal viability incubated for 48 hrs by microplate reader analysis; format: functional
[28] = tested on: Aspergillus flavus; assay: Antifungal activity against Aspergillus flavus NRRL485 assessed as reduction in fungal viability incubated for 48 hrs by microplate reader analysis; format: functional
[29] = tested on: Aspergillus niger; assay: Antifungal activity against Aspergillus niger FGSC A732 assessed as reduction in fungal viability incubated for 48 hrs by microplate reader analysis; format: functional
[30] = tested on: Aspergillus terreus; assay: Antifungal activity against Aspergillus terreus 191A6 assessed as reduction in fungal viability incubated for 48 hrs by microplate reader analysis; format: functional
[31] = tested on: Curvularia lunata; assay: Antifungal activity against Curvularia lunata NRRL6409 assessed as reduction in fungal viability incubated for 48 hrs by microplate reader analysis; format: functional
[32] = tested on: Rhizopus arrhizus; assay: Antifungal activity against Rhizopus oryzae FGSC 9543 assessed as reduction in fungal viability incubated for 48 hrs by microplate reader analysis; format: functional
[33] = tested on: Mucor circinelloides; assay: Antifungal activity against Mucor circinelloides 235C7 assessed as reduction in fungal viability incubated for 48 hrs by microplate reader analysis; format: functional
[34] = tested on: Fusarium solani; assay: Antifungal activity against Fusarium solani 243G2 assessed as reduction in fungal viability incubated for 48 hrs by microplate reader analysis; format: functional
[35] = tested on: Paecilomyces lilacinus; assay: Antifungal activity against Paecilomyces lilacinus 165E10 assessed as reduction in fungal viability incubated for 48 hrs by microplate reader analysis; format: functional, Purpureocillium lilacinum
[36] = tested on: Hamigera insecticola; assay: Antifungal activity against Hamigera insecticola NRRL35442 assessed as reduction in fungal viability incubated for 48 hrs by microplate reader analysis; format: functional

- MIC80 [1]: 0.3 µM (≈ 0.328 µg/mL)
- MIC80 [2]: 0.03 µM (≈ 0.0328 µg/mL)
- MIC80 [3]: 0.03 µM (≈ 0.0328 µg/mL)
- MIC80 [4]: 0.2 µM (≈ 0.219 µg/mL)
- MIC80 [5]: 0.03 µM (≈ 0.0328 µg/mL)
- MIC80 [6]: > 10 µM
- MIC80 [7]: 0.1 µM (≈ 0.109 µg/mL)
- MIC80 [8]: > 10 µM
- MIC80 [9]: > 10 µM
- MIC80 [10]: > 10 µM
- MIC80 [11]: 0.1 µM (≈ 0.109 µg/mL)
- MIC80 [12]: 0.13 µM (≈ 0.142 µg/mL)
- MIC80 [13]: 5 µM (≈ 5.47 µg/mL)
- MIC80 [14]: > 10 µM
- MIC80 [15]: > 10 µM
- MIC80 [16]: 0.2 µM (≈ 0.219 µg/mL)
- MIC80 [17]: > 10 µM
SMILES: CC[C@H](C)C[C@H](C)CCCCCCCCC(=O)N[C@H]1C[C@@H](O)[C@@H](NCCN)NC(=O)[C@@H]2[C@@H](O)CCN2C(=O)[C@H]([C@H](O)CCN)NC(=O)[C@H]([C@H](O)[C@@H](O)c2ccc(O)cc2)NC(=O)[C@@H]2C[C@@H](O)CN2C(=O)[C@H]([C@@H](C)O)NC1=O [CASPOFUNGIN]
- MFC [1]: 1.3 µM (≈ 1.42 µg/mL)
- MFC [2]: 5 µM (≈ 5.47 µg/mL)
- MFC [3]: 0.63 µM (≈ 0.689 µg/mL)
- MFC [4]: 0.3 µM (≈ 0.328 µg/mL)
- MFC [5]: 0.2 µM (≈ 0.219 µg/mL)
- MFC [6]: > 10 µM
- MFC [7]: > 10 µM
- MFC [8]: > 10 µM
- MFC [9]: > 10 µM
- MFC [10]: > 10 µM
- MFC [11]: > 10 µM
- MFC [12]: > 10 µM
- MFC [13]: 5 µM (≈ 5.47 µg/mL)
- MFC [14]: > 10 µM
- MFC [15]: > 10 µM
- MFC [16]: > 10 µM
- MFC [17]: > 10 µM
- MFC [18]: > 10 µM
- MIC80 [18]: 0.1 µM (≈ 0.109 µg/mL)
- MFC<=99.9 [19]: 0.63 µM (≈ 0.689 µg/mL)
- MFC<=99.9 [20]: 5 µM (≈ 5.47 µg/mL)
- MFC<=99.9 [21]: 1.3 µM (≈ 1.42 µg/mL)
- MFC<=99.9 [22]: 0.2 µM (≈ 0.219 µg/mL)
- MFC<=99.9 [23]: 0.3 µM (≈ 0.328 µg/mL)
- MFC<=99.9 [24]: >10 µM
- MFC<=99.9 [25]: >10 µM
- MFC<=99.9 [26]: >10 µM
- MFC<=99.9 [27]: >10 µM
- MFC<=99.9 [28]: >10 µM
- MFC<=99.9 [29]: >10 µM
- MFC<=99.9 [30]: >10 µM
- MFC<=99.9 [31]: 5 µM (≈ 5.47 µg/mL)
- MFC<=99.9 [32]: >10 µM
- MFC<=99.9 [33]: >10 µM
- MFC<=99.9 [34]: >10 µM
- MFC<=99.9 [35]: >10 µM
- MFC<=99.9 [36]: >10 µM

- MIC80 [1]: 0.6 µM (≈ 0.423 µg/mL)
- MIC80 [2]: 0.06 µM (≈ 0.0423 µg/mL)
- MIC80 [3]: 0.135 µM (≈ 0.0953 µg/mL)
- MIC80 [4]: 0.6 µM (≈ 0.423 µg/mL)
- MIC80 [5]: 0.6 µM (≈ 0.423 µg/mL)
- MIC80 [6]: 0.6 µM (≈ 0.423 µg/mL)
- MIC80 [7]: 5 µM (≈ 3.53 µg/mL)
- MIC80 [8]: 1.3 µM (≈ 0.917 µg/mL)
- MIC80 [9]: 1.3 µM (≈ 0.917 µg/mL)
- MIC80 [10]: 0.2 µM (≈ 0.141 µg/mL)
- MIC80 [11]: 2.5 µM (≈ 1.76 µg/mL)
- MIC80 [12]: 0.6 µM (≈ 0.423 µg/mL)
- MIC80 [13]: 2.5 µM (≈ 1.76 µg/mL)
- MIC80 [14]: 0.6 µM (≈ 0.423 µg/mL)
- MIC80 [15]: 10 µM (≈ 7.06 µg/mL)
- MIC80 [16]: 2.5 µM (≈ 1.76 µg/mL)
- MIC80 [17]: 2.5 µM (≈ 1.76 µg/mL)
SMILES: CCC(C)n1ncn(-c2ccc(N3CCN(c4ccc(OCC5COC(Cn6cncn6)(c6ccc(Cl)cc6Cl)O5)cc4)CC3)cc2)c1=O (stereo not drawn) [ITRACONAZOLE]
- MFC [1]: 5 µM (≈ 3.53 µg/mL)
- MFC [2]: > 10 µM
- MFC [3]: > 10 µM
- MFC [4]: 2.5 µM (≈ 1.76 µg/mL)
- MFC [5]: > 10 µM
- MFC [6]: > 10 µM
- MFC [7]: > 10 µM
- MFC [8]: > 10 µM
- MFC [9]: 10 µM (≈ 7.06 µg/mL)
- MFC [10]: 0.6 µM (≈ 0.423 µg/mL)
- MFC [11]: 5 µM (≈ 3.53 µg/mL)
- MFC [12]: 2.5 µM (≈ 1.76 µg/mL)
- MFC [13]: 5 µM (≈ 3.53 µg/mL)
- MFC [14]: 0.6 µM (≈ 0.423 µg/mL)
- MFC [15]: > 10 µM
- MFC [16]: 5 µM (≈ 3.53 µg/mL)
- MFC [17]: 1.3 µM (≈ 0.917 µg/mL)
- MFC [18]: 1.35 µM (≈ 0.953 µg/mL)
- MIC80 [18]: 0.3 µM (≈ 0.212 µg/mL)
- MFC<=99.9 [19]: >10 µM
- MFC<=99.9 [20]: >10 µM
- MFC<=99.9 [21]: 5 µM (≈ 3.53 µg/mL)
- MFC<=99.9 [22]: >10 µM
- MFC<=99.9 [23]: 2.5 µM (≈ 1.76 µg/mL)
- MFC<=99.9 [24]: >10 µM
- MFC<=99.9 [25]: >10 µM
- MFC<=99.9 [26]: >10 µM
- MFC<=99.9 [27]: 10 µM (≈ 7.06 µg/mL)
- MFC<=99.9 [28]: 0.6 µM (≈ 0.423 µg/mL)
- MFC<=99.9 [29]: 5 µM (≈ 3.53 µg/mL)
- MFC<=99.9 [30]: 2.5 µM (≈ 1.76 µg/mL)
- MFC<=99.9 [31]: 5 µM (≈ 3.53 µg/mL)
- MFC<=99.9 [32]: 0.6 µM (≈ 0.423 µg/mL)
- MFC<=99.9 [33]: >10 µM
- MFC<=99.9 [34]: 5 µM (≈ 3.53 µg/mL)
- MFC<=99.9 [35]: 1.3 µM (≈ 0.917 µg/mL)
- MFC<=99.9 [36]: 1.35 µM (≈ 0.953 µg/mL)

Source: ChEMBL document CHEMBL5390204, “Persephacin Is a Broad-Spectrum Antifungal Aureobasidin Metabolite That Overcomes Intrinsic Resistance in Aspergillus fumigatus” (J Nat Prod, 2023)
